Test results as given in patent US8614290B2, “Cancer imaging and treatment” (Technische Universitat Munchen, priority 2007, dated 2013).
Numbered stars: 1 amine (or outer) side, 2 acyl side, 3 side chain; on linkers, the order of the positions; unused ones are H or OH. Bridge positions count the residues as written; N and C are the ends. Square brackets hold non-standard residues; d marks the D form. Peptide text beside a SMILES is read from it. I, II: the chains in the order shown. * marks the point of attachment. C16 diacid = O=C(O)CCCCCCCCCCCCCCC(=O)*; Sebacoyl = O=C(CCCCCCCCC(=O)[*:2])[*:1]; 2Nal = N[C@@H](Cc1ccc2ccccc2c1)C(=O)O; Suberoyl = O=C(CCCCCCC(=O)[*:2])[*:1]; Adipoyl = O=C(CCCCC(=O)[*:2])[*:1]; Glutaryl = O=C(CCCC(=O)[*:2])[*:1]; dNMeOrn = CN[C@H](CCCN)C(=O)O; Suc = O=C(CCC(=O)[*:2])[*:1]; X3 = NC(=O)CCCC(=O)*

These molecules were tested against human CXCR4 (Homo sapiens, UniProt P61073) (assay: Competitive receptor binding assay on Jurkat cells with 125I-CPCR4 as tracer). Conditions: Table 1, Nα-monomethylated cyclic pentapeptides; read-out: IC50.
Parameters: Jurkat cells that endogenously express the CXCR4 receptor; endogenous in cells; host or cells: Jurkat cells
Protocol: For receptor binding assays cells were resuspended in PBS/0.2% BSA. A total of 200 μl of the suspension containing 400,000 Jurkat cells were incubated with 25 μl of the tracer solution (containing 3.1 kBq, approx. 0.1 nM) and 25 μl of the diluent or the competitor at different concentrations. […] After shaking for 2 h at room temperature, the incubation was terminated by centrifugation at 1300 rpm for 5 min. Cell pellets were washed once with cold PBS followed by a second centrifugation step. Cell bound radioactivity was determined by using a gamma counter. Experiments were repeated 2-3 times in triplicates. IC50 values of the compounds were calculated by nonlinear regression using GraphPad Prism (GraphPad Prism 4.0 Software, Inc., San Diego, Calif., USA). Each data point is the average of three determinations.

human CXCR4, sequence (P61073 whole entry): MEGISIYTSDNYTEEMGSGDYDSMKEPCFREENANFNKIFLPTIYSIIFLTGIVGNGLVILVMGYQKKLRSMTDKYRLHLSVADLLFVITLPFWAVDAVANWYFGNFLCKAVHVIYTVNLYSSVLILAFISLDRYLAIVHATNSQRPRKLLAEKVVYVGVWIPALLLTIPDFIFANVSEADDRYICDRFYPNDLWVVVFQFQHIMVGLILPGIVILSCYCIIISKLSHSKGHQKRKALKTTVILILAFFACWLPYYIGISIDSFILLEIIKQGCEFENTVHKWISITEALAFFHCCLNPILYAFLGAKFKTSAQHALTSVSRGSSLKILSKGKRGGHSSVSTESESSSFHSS

Row | SMILES | IC50
1 | CN1C(=O)[C@@H](Cc2ccc(O)cc2)NC(=O)CNC(=O)[C@H](Cc2ccc3ccccc3c2)NC(=O)[C@H](CCCNC(=N)N)NC(=O)[C@@H]1CCCNC(=N)N [OD1, cyc[D-Tyr-(Me)Arg-Arg-Nal-Gly]] | 23 nM
2 | CN1C(=O)[C@H](CCCNC(=N)N)NC(=O)[C@@H](Cc2ccc(O)cc2)NC(=O)CNC(=O)[C@H](Cc2ccc3ccccc3c2)NC(=O)[C@@H]1CCCNC(=N)N [OD3, cyc[D-Tyr-Arg-(Me)Arg-Nal-Gly]] | 31 nM

Same assay, conditions: Table 4, Orn-Nδ and/or Orn-Nα-modified pentapeptides; read-out: IC50

Row | SMILES | IC50
3 | N=C(N)NCCC[C@@H]1NC(=O)[C@H](CCCN(Cc2ccccc2)C(=O)c2ccc(F)cc2)NC(=O)[C@@H](Cc2ccc(O)cc2)NC(=O)CNC(=O)[C@H](Cc2ccc3ccccc3c2)NC1=O [cyc[D-Tyr-Orn(Bz,FB)-Arg-Nal-Gly]] (HELM PEPTIDE1{[O=C([C@H](Cc1ccc2ccccc2c1)N[*:1])[*:2]].G.[dY].[O=C(c1ccc(F)cc1)N(CCC[C@H](N[*:1])C(=O)[*:2])Cc1ccccc1].R}$PEPTIDE1,PEPTIDE1,1:R1-5:R2$$$V2.0) | 100 nM

Same assay, conditions: Table 5, D-Orn derivatives, His, Phe; read-out: IC50

Row | SMILES | IC50
4 | CN(CCC[C@@H]1C(=O)N[C@@H](CCCNC(=N)N)C(=O)N[C@@H](Cc2ccc3ccccc3c2)C(=O)NCC(=O)N[C@H](Cc2ccc(O)cc2)C(=O)N1C)C(=O)c1ccc(F)cc1 [cyc[D-Tyr-(Me)D-Orn(Me,FB)-Arg-Nal-Gly]] (HELM PEPTIDE1{[O=C([C@H](Cc1ccc2ccccc2c1)N[*:1])[*:2]].G.[dY].[CN(CCC[C@H](C(=O)[*:2])N(C)[*:1])C(=O)c1ccc(F)cc1].R}$PEPTIDE1,PEPTIDE1,1:R1-5:R2$$$V2.0) | 59 nM
5 | N=C(N)NCCC[C@@H]1NC(=O)[C@H](Cc2c[nH]cn2)NC(=O)[C@@H](Cc2ccc(O)cc2)NC(=O)CNC(=O)[C@H](Cc2ccc3ccccc3c2)NC1=O [cyc[D-Tyr-His-Arg-Nal-Gly]] (HELM PEPTIDE1{[O=C([C@H](Cc1ccc2ccccc2c1)N[*:1])[*:2]].G.[dY].H.R}$PEPTIDE1,PEPTIDE1,1:R1-5:R2$$$V2.0) | 30 nM

Same assay, conditions: Table 10, dimers and monomers; read-out: IC50

Row | SMILES | IC50
6 | CN1C(=O)[C@@H](Cc2ccc(O)cc2)NC(=O)CNC(=O)[C@H](Cc2ccc3ccccc3c2)NC(=O)[C@H](CCCN=C(N)N)NC(=O)[C@H]1CCCNC(=O)CNC(=O)CC(CC(=O)NCC(=O)NCCC[C@@H]1C(=O)N[C@@H](CCCN=C(N)N)C(=O)N[C@@H](Cc2ccc3ccccc3c2)C(=O)NCC(=O)N[C@H](Cc2ccc(O)cc2)C(=O)N1C)NC(=O)CCCCCNC(=O)CN1CCN(CC(=O)O)CCN(CC(=O)O)CCN(CC(=O)O)CC1 (single isomer, unassigned) [NMe-D-Orn + Gly DOTAAhxbetaAsp] | 12.3 nM
7 | N=C(N)NCCC[C@@H]1NC(=O)[C@H](CCCNC(=O)CON=CCCCC=NOCC(=O)NCCC[C@@H]2NC(=O)[C@@H](Cc3ccc(O)cc3)NC(=O)CNC(=O)[C@H](Cc3ccc4ccccc4c3)NC(=O)[C@H](CCCNC(=N)N)NC2=O)NC(=O)[C@@H](Cc2ccc(O)cc2)NC(=O)CNC(=O)[C@H](Cc2ccc3ccccc3c2)NC1=O [Code A22, glutaric aldehyde-(cyclo[D-Tyr-Orn(amineoxyacetyl)-Arg-2-Nal-Gly])2] | 57.9 nM
8 | CN1C(=O)[C@@H](Cc2ccc(O)cc2)NC(=O)CNC(=O)[C@H](Cc2ccc3ccccc3c2)NC(=O)[C@H](CCCNC(=N)N)NC(=O)[C@H]1CCCNC(=O)CCCC(N)=O [Monomer + Glutaric acid monoamide] (cyclo([2Nal]G[dY][dNMeOrn](X3)R)) | 66.5 nM
9 | CN1C(=O)[C@@H](Cc2ccc(O)cc2)NC(=O)CNC(=O)[C@H](Cc2ccc3ccccc3c2)NC(=O)[C@H](CCCNC(=N)N)NC(=O)[C@H]1CCCNC(=O)CNC(=O)C[C@H](NC(=O)CCCCCNC(=O)CN1CCN(CC(=O)O)CCN(CC(=O)O)CCN(CC(=O)O)CC1)C(=O)NCC(=O)NCCC[C@@H]1C(=O)N[C@@H](CCCNC(=N)N)C(=O)N[C@@H](Cc2ccc3ccccc3c2)C(=O)NCC(=O)N[C@H](Cc2ccc(O)cc2)C(=O)N1C [NMe-D-Orn + Gly DOTAAhxAsp] | 38 nM
10 | CN1C(=O)[C@@H](Cc2ccc(O)cc2)NC(=O)CNC(=O)[C@H](Cc2ccc3ccccc3c2)NC(=O)[C@H](CCCN=C(N)N)NC(=O)[C@H]1CCCNC(=O)CNC(=O)CC(=O)NCC(=O)NCCC[C@@H]1C(=O)N[C@@H](CCCN=C(N)N)C(=O)N[C@@H](Cc2ccc3ccccc3c2)C(=O)NCC(=O)N[C@H](Cc2ccc(O)cc2)C(=O)N1C [NMe-D-Orn + Gly n = 1] | 5.48 nM
11 | CN1C(=O)[C@@H](Cc2ccc(O)cc2)NC(=O)CNC(=O)[C@H](Cc2ccc3ccccc3c2)NC(=O)[C@H](CCCNC(=N)N)NC(=O)[C@H]1CCCNC(=O)C[C@H](NC(=O)CCCCCNC(=O)CN1CCN(CC(=O)O)CCN(CC(=O)O)CCN(CC(=O)O)CC1)C(=O)NCCC[C@@H]1C(=O)N[C@@H](CCCNC(=N)N)C(=O)N[C@@H](Cc2ccc3ccccc3c2)C(=O)NCC(=O)N[C@H](Cc2ccc(O)cc2)C(=O)N1C [NMe-D-Orn DOTAAhxAsp] | 92.1 nM
12 | CN1C(=O)[C@@H](Cc2ccc(O)cc2)NC(=O)CNC(=O)[C@H](Cc2ccc3ccccc3c2)NC(=O)[C@H](CCCNC(=N)N)NC(=O)[C@H]1CCCNC(=O)C[C@H](NC(=O)CCCCCNC(=O)CN1CCN(CC(=O)O)CCN(CC(=O)O)CCN(CC(=O)O)CC1)C(=O)NCCC[C@@H]1C(=O)N[C@@H](CCCNC(=N)N)C(=O)N[C@@H](Cc2ccc3ccccc3c2)C(=O)NCC(=O)N[C@H](Cc2ccc(O)cc2)C(=O)N1C [NMe-D-Orn InDOTAAhxAsp] | 37.9 nM
13 | CN1C(=O)[C@@H](Cc2ccc(O)cc2)NC(=O)CNC(=O)[C@H](Cc2ccc3ccccc3c2)NC(=O)[C@H](CCCNC(=N)N)NC(=O)[C@H]1CCCNC(=O)CCC(=O)NCCC[C@@H]1C(=O)N[C@@H](CCCNC(=N)N)C(=O)N[C@@H](Cc2ccc3ccccc3c2)C(=O)NCC(=O)N[C@H](Cc2ccc(O)cc2)C(=O)N1C [NMe-D-Orn n = 2] (I: cyclo([2Nal]G[dY][dNMeOrn]R) / II: cyclo([2Nal]G[dY][dNMeOrn]R); linker I:4-II:4 via Suc) | 6.61 nM
14 | CN1C(=O)[C@@H](Cc2ccc(O)cc2)NC(=O)CNC(=O)[C@H](Cc2ccc3ccccc3c2)NC(=O)[C@H](CCCN=C(N)N)NC(=O)[C@H]1CCCNC(=O)CCCCC(=O)NCCC[C@@H]1C(=O)N[C@@H](CCCN=C(N)N)C(=O)N[C@@H](Cc2ccc3ccccc3c2)C(=O)NCC(=O)N[C@H](Cc2ccc(O)cc2)C(=O)N1C [NMe-D-Orn n = 4] (I: cyclo([2Nal]G[dY][dNMeOrn]R) / II: cyclo([2Nal]G[dY][dNMeOrn]R); linker I:4-II:4 via Adipoyl) | 3.65 nM
15 | CN1C(=O)[C@@H](Cc2ccc(O)cc2)NC(=O)CNC(=O)[C@H](Cc2ccc3ccccc3c2)NC(=O)[C@H](CCCN=C(N)N)NC(=O)[C@H]1CCCNC(=O)CCCCCCCCC(=O)NCCC[C@@H]1C(=O)N[C@@H](CCCN=C(N)N)C(=O)N[C@@H](Cc2ccc3ccccc3c2)C(=O)NCC(=O)N[C@H](Cc2ccc(O)cc2)C(=O)N1C [NMe-D-Orn n = 8] (I: cyclo([2Nal]G[dY][dNMeOrn]R) / II: cyclo([2Nal]G[dY][dNMeOrn]R); linker I:4-II:4 via Sebacoyl) | 2.26 nM
16 | CN1C(=O)[C@@H](Cc2ccc(O)cc2)NC(=O)CNC(=O)[C@H](Cc2ccc3ccccc3c2)NC(=O)[C@H](CCCNC(=N)N)NC(=O)[C@H]1CCCNC(=O)CCCCCCCCCCCCCCC(=O)NCCC[C@@H]1C(=O)N[C@@H](CCCNC(=N)N)C(=O)N[C@@H](Cc2ccc3ccccc3c2)C(=O)NCC(=O)N[C@H](Cc2ccc(O)cc2)C(=O)N1C [NMe-D-Orn n = 14] (I: cyclo([2Nal]G[dY][dNMeOrn]R) / II: cyclo([2Nal]G[dY][dNMeOrn]R); linker I:4-II:4 via C16 diacid (inferred); ring closure inferred) | 33.5 nM

Same assay, conditions: read-out: IC50 (affinity)

Row | SMILES | IC50
17 | N=C(N)NCCC[C@@H]1NC(=O)[C@H](CCCNC(=O)CON=CCCCC=NOCC(=O)NCCC[C@@H]2NC(=O)[C@@H](Cc3ccc(O)cc3)NC(=O)CNC(=O)[C@H](Cc3ccc4ccccc4c3)NC(=O)[C@H](CCCNC(=N)N)NC2=O)NC(=O)[C@@H](Cc2ccc(O)cc2)NC(=O)CNC(=O)[C@H](Cc2ccc3ccccc3c2)NC1=O [Code A22, glutaric aldehyde-(cyclo[D-Tyr-Orn(amineoxyacetyl)-Arg-2-Nal-Gly])2] | 58 ± 4.2 nM
18 | CN1C(=O)[C@@H](Cc2ccc(O)cc2)NC(=O)CNC(=O)[C@H](Cc2ccc3ccccc3c2)NC(=O)[C@H](CCCNC(=N)N)NC(=O)[C@H]1CCCNC(=O)CCCC(=O)NCCC[C@@H]1C(=O)N[C@@H](CCCNC(=N)N)C(=O)N[C@@H](Cc2ccc3ccccc3c2)C(=O)NCC(=O)N[C@H](Cc2ccc(O)cc2)C(=O)N1C [NMe-D-Orn n = 3] (I: cyclo([2Nal]G[dY][dNMeOrn]R) / II: cyclo([2Nal]G[dY][dNMeOrn]R); linker I:4-II:4 via Glutaryl) | 4.28 ± 2.3 nM
19 | CN1C(=O)[C@@H](Cc2ccc(O)cc2)NC(=O)CNC(=O)[C@H](Cc2ccc3ccccc3c2)NC(=O)[C@H](CCCN=C(N)N)NC(=O)[C@H]1CCCNC(=O)CCCCC(=O)NCCC[C@@H]1C(=O)N[C@@H](CCCN=C(N)N)C(=O)N[C@@H](Cc2ccc3ccccc3c2)C(=O)NCC(=O)N[C@H](Cc2ccc(O)cc2)C(=O)N1C [NMe-D-Orn n = 4] (I: cyclo([2Nal]G[dY][dNMeOrn]R) / II: cyclo([2Nal]G[dY][dNMeOrn]R); linker I:4-II:4 via Adipoyl) | 4.42 nM
20 | CN1C(=O)[C@@H](Cc2ccc(O)cc2)NC(=O)CNC(=O)[C@H](Cc2ccc3ccccc3c2)NC(=O)[C@H](CCCNC(=N)N)NC(=O)[C@H]1CCCNC(=O)CCCCCCC(=O)NCCC[C@@H]1C(=O)N[C@@H](CCCNC(=N)N)C(=O)N[C@@H](Cc2ccc3ccccc3c2)C(=O)NCC(=O)N[C@H](Cc2ccc(O)cc2)C(=O)N1C [NMe-D-Orn n = 6] (I: cyclo([2Nal]G[dY][dNMeOrn]R) / II: cyclo([2Nal]G[dY][dNMeOrn]R); linker I:4-II:4 via Suberoyl) | 2.51 ± 0.7 nM
21 | CN1C(=O)[C@@H](Cc2ccc(O)cc2)NC(=O)CNC(=O)[C@H](Cc2ccc3ccccc3c2)NC(=O)[C@H](CCCN=C(N)N)NC(=O)[C@H]1CCCNC(=O)CCCCCCCCC(=O)NCCC[C@@H]1C(=O)N[C@@H](CCCN=C(N)N)C(=O)N[C@@H](Cc2ccc3ccccc3c2)C(=O)NCC(=O)N[C@H](Cc2ccc(O)cc2)C(=O)N1C [NMe-D-Orn n = 8] (I: cyclo([2Nal]G[dY][dNMeOrn]R) / II: cyclo([2Nal]G[dY][dNMeOrn]R); linker I:4-II:4 via Sebacoyl) | 2.12 ± 0.9 nM
22 | CN1C(=O)[C@@H](Cc2ccc(O)cc2)NC(=O)CNC(=O)[C@H](Cc2ccc3ccccc3c2)NC(=O)[C@H](CCCNC(=N)N)NC(=O)[C@H]1CCCNC(=O)CCCCCCCCCCCC(=O)NCCC[C@@H]1C(=O)N[C@@H](CCCNC(=N)N)C(=O)N[C@@H](Cc2ccc3ccccc3c2)C(=O)NCC(=O)N[C@H](Cc2ccc(O)cc2)C(=O)N1C [NMe-D-Orn n = 11] | 11.1 ± 3.4 nM
